Laboratory results: patent US4968669A, “Parathyroid hormone antagonists” (Merck & Co., Inc., priority 1989, dated 1990)

Tests used:
[1] = biological target: T1, PTH receptor in bovine renal cortical plasma membranes (Bos taurus, UniProt Q1LZF7); test: PTH binding assay, bovine renal cortical plasma membranes, radioligand [Nle8,18,125I-Tyr34]bPTH(1-34)NH2; conditions: 30 min at 21° C
T1 construct: from tissue; host or cells: bovine renal cortex, plasma membranes
T1 sequence (Q1LZF7 29-589): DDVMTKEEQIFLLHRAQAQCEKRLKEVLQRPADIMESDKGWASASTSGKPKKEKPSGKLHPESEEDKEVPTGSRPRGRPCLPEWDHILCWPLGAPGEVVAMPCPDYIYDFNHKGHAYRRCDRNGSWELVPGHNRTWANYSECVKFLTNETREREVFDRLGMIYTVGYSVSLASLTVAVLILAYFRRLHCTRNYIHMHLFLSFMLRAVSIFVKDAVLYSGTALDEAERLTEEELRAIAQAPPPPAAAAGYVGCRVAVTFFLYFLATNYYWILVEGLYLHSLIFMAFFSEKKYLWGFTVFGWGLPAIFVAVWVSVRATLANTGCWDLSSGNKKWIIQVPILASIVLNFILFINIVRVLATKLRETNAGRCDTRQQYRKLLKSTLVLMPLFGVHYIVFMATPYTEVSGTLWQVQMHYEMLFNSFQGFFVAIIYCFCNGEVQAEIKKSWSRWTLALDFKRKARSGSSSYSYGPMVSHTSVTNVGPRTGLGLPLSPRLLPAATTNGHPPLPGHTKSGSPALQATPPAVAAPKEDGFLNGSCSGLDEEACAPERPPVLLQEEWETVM
Description: Bovine renal cortical plasma membranes were incubated with radioligand (25,000 cpm) in the absence or presence of PTH analogues in a Tris containing buffer (250 μl) for 30 min. at 21° C. Once equilibrium was reached, bound and free radioligand were separated by centrifugation.

[2] = biological target: T2, I^125 -labeled PTH binding to rat osteosarcoma cell line ROS 17/2.8 (Rattus norvegicus, UniProt P25961); test: PTH binding assay, ROS 17/2.8 cells
T2 construct: bone-derived rat osteosarcoma cell line ROS 17/2.8; endogenous in cells; host or cells: ROS 17/2.8 rat osteosarcoma cells
T2 sequence (P25961 27-591): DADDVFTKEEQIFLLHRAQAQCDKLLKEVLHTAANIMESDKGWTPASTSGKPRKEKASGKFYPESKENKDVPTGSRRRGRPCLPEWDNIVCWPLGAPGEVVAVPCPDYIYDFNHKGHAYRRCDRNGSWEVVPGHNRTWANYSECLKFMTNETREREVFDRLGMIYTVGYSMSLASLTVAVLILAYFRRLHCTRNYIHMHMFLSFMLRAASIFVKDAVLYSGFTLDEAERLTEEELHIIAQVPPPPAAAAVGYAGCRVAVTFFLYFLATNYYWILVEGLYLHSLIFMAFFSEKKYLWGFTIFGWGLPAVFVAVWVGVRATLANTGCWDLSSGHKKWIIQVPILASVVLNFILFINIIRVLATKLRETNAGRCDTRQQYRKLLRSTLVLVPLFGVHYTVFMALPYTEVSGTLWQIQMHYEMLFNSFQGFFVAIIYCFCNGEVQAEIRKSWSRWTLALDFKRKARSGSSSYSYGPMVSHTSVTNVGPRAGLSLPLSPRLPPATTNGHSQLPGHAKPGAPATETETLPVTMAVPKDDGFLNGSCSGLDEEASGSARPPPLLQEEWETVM

[3] = biological target: T3, I^125 -labeled PTH binding to human osteosarcoma cells (BIO) (Homo sapiens, UniProt Q03431); test: PTH binding assay (human osteosarcoma cells)
T3 construct: endogenous in cells; host or cells: human osteosarcoma cells (BIO)
T3 sequence (Q03431 27-593): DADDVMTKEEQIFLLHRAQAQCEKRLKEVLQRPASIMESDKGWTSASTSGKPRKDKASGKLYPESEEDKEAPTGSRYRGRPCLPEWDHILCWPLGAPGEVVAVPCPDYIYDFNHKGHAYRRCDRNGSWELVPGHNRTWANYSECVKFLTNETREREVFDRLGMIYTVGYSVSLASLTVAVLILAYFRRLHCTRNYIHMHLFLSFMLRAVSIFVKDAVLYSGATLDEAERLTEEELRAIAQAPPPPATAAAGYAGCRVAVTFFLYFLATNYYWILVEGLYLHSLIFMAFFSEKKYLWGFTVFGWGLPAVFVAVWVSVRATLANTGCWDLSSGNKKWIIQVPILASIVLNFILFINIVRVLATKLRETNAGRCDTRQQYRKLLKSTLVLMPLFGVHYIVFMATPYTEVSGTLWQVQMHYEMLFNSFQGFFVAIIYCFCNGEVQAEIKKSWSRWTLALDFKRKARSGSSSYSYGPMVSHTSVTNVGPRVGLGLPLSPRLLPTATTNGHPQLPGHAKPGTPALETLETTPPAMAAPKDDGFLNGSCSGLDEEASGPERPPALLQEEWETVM
Source text: The results are as follows:

[4] = biological target: T4, I^125 -labeled PTH binding to canine renal cortical membranes (Canis lupus familiaris, UniProt Q9TU31); test: PTH binding assay (canine kidney)
T4 construct: from tissue; host or cells: canine renal cortex, membranes
T4 sequence (Q9TU31 29-595): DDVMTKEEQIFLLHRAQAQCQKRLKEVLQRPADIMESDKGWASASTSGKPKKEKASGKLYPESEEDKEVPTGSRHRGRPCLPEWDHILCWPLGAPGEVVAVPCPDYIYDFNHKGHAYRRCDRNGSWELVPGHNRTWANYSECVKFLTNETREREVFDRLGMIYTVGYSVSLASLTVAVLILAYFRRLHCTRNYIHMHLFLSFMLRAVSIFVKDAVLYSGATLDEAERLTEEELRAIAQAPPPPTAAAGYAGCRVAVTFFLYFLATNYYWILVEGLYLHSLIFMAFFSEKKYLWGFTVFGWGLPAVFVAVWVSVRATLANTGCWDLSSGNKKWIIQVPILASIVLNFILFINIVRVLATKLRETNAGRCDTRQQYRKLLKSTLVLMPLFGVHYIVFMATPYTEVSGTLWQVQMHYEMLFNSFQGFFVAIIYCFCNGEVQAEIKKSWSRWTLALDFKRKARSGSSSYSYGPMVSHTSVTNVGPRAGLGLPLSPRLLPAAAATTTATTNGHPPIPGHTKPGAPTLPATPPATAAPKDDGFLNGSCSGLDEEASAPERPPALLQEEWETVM

CCCC[C@H](NC(=O)[C@H](CO)NC(=O)[C@H](CO)NC(=O)[C@H](CC(C)C)NC(=O)[C@H](Cc1c[nH]cn1)NC(=O)[C@H](CCCCN)NC(=O)CNC(=O)[C@H](CC(C)C)NC(=O)[C@H](CC(N)=O)NC(=O)[C@H](Cc1c[nH]cn1)NC(=O)[C@H](CCCC)NC(=O)[C@@H](N)Cc1ccccc1)C(=O)N[C@@H](CCC(=O)O)C(=O)N[C@@H](CCCNC(=N)N)C(=O)N[C@H](C(=O)N[C@@H](CCC(=O)O)C(=O)N[C@@H](Cc1c[nH]c2ccccc12)C(=O)N[C@@H](CC(C)C)C(=O)N[C@@H](CCCNC(=N)N)C(=O)N[C@@H](CCCCN)C(=O)N[C@@H](CCCCN)C(=O)N[C@@H](CC(C)C)C(=O)N[C@@H](CCC(N)=O)C(=O)N[C@@H](CC(=O)O)C(=O)N[C@H](C(=O)N[C@@H](Cc1c[nH]cn1)C(=O)N[C@@H](CC(N)=O)C(=O)N[C@@H](Cc1ccc(O)cc1)C(N)=O)C(C)C)C(C)C [[Nle^8,18,Tyr^34]bPTH(7-34)NH2]
Ki [1]: 145 ± 13 nM | Ki [2]: 964 ± 170 nM

CSCC[C@H](NC(=O)[C@H](CO)NC(=O)[C@H](CO)NC(=O)[C@H](CC(C)C)NC(=O)[C@H](Cc1c[nH]cn1)NC(=O)[C@H](CCCCN)NC(=O)CNC(=O)[C@H](CC(C)C)NC(=O)[C@H](CC(N)=O)NC(=O)[C@H](Cc1c[nH]cn1)NC(=O)[C@H](CCSC)NC(=O)[C@@H](N)Cc1ccccc1)C(=O)N[C@@H](CCC(=O)O)C(=O)N[C@@H](CCCNC(=N)N)C(=O)N[C@H](C(=O)N[C@@H](CCC(=O)O)C(=O)N[C@@H](Cc1c[nH]c2ccccc12)C(=O)N[C@@H](CC(C)C)C(=O)N[C@@H](CCCNC(=N)N)C(=O)N[C@@H](CCCCN)C(=O)N[C@@H](CCCCN)C(=O)N[C@@H](CC(C)C)C(=O)N[C@@H](CCC(N)=O)C(=O)N[C@@H](CC(=O)O)C(=O)N[C@H](C(=O)N[C@@H](Cc1c[nH]cn1)C(=O)N[C@@H](CC(N)=O)C(=O)N[C@@H](Cc1ccc(O)cc1)C(N)=O)C(C)C)C(C)C [[Tyr^34]bPTH(7-34)NH2]
Ki [3]: 5.5 ± 1.6 nM | Ki [1]: 76 ± 9 nM | Ki [2]: 700 ± 90 nM | Ki [4]: 45.8 ± 11.3 nM
